Measurements published in patent publication US7579468B2, “Methods of modulating neurotrophin-mediated activity” (PainCeptor Pharma Corporation, priority 2005, dated 2009).
Entries after “also recorded” stand apart in the source; their conditions may differ.

Legend:
Male Sprague-Dawley rats [1] = assay: Formalin Model - model of acute tonic pain; format: in vivo, rat; settings: 6.5, 12.5 and 25 mg/kg i.p., Phase II
Procedure: Male Sprague-Dawley rats were given a subcutaneous injection of 50 μl of 2.5% formalin into the plantar surface of one hindpaw using a 27 gauge syringe needle, and nociceptive responses were measured for the next 60 min. Compound or vehicle was administered (i.p. or s.c.) 15-45 minutes prior to the formalin injection. A nociceptive score was determined for each 5 min block by measuring the amount of time spent in each of four behavioral categories: 0, the injected hindpaw is indistinguishable from that of the contralateral paw; 1, the injected paw has little or no weight placed on it; 2, the injected paw is elevated and is not in contact with any surface; 3, the injected paw is licked, bitten, or shaken. A weighted nociceptive score, ranging from 0 to 3 was calculated by multiplying the time spent in each category by the category weight, summing these products, and dividing by the total time for each 5 min block of time (Coderre et al., Pain 1993; 54: 43). On the basis of the resulting response patterns, 2 phases of nociceptive behaviour were identified and scored: first phase (P1; 0-5 min) and second phase (P2; 11-40 min).
Statistical analysis was performed using Prism™ 4.01 software package (GraphPad, San Diego, Calif., USA). […]

PC12 cells = assay: NGF-induced neurite outgrowth in PC12 cells; format: cell-based, rat; settings: 4 days of exposure to NGF
Procedure: This assay was run as a further functional marker of NGF antagonism and takes advantage of the differentiation of PC12 cells (neurite outgrowth) induced by NGF. Cultures of PC12 cells were grown on Terasaki plates pre-coated with poly-D-lysine. Cells were exposed to NGF (1-50 (preferably 5) ng/ml) to induce neurite outgrowth as described elsewhere [L A Greene & A S Tischler, Establishment of a noradrenergic clonal line of rat adrenal pheochromocytoma cells which respond to nerve growth factor, Proc Natl Acad Sci USA. 1976 July; 73(7): 2424-2428]. In addition to NGF, cells were exposed to varying concentration of the compounds or vehicle. Following 4 days of exposure to NGF in the presence or absence of compound, neurite outgrowth was quantified. A neurite was scored if its caliber from origin to terminal was approximately the same and the length was equal to or greater than 1.5 the cell body diameter. The number of neurite bearing cells per total number of viable cells was calculated for each condition; the number of cells with neurites in the presence of NGF (without compound exposure) was considered to represent maximal (100%) outgrowth, to which the inhibitory effect of compounds of the invention on NGF-induced outgrowth was compared.

Male Sprague-Dawley rats [2] = assay: Chung or Spinal Nerve Ligation (SNL) model of neuropathic pain; format: in vivo, rat; settings: Von Frey filaments, 90 min post-treatment, 5 and 10 mg/kg i.p.
From the text: The Spinal Nerve Ligation (SNL) model (Kim and Chung, Pain 1992; 50: 355) was used to induce chronic neuropathic pain. Male Sprague-Dawley rats (Harlan, Indianapolis, Ind., USA) were anesthetized with isoflurane, the left […] was removed, and the L5 and L6 spinal nerves were tightly ligated with 6-0 silk suture. The wound was then closed with internal sutures and external staples.
Mechanical allodynia testing: Pre- and post-injury baselines as well as post-treatment values (vehicle or compound-treated animals) for non-noxious mechanical sensitivity were evaluated using 8 Semmes-Weinstein filaments (Stoelting, Wood Dale, Ill., USA) with varying stiffness according to the up-down method (Chaplan et al., J Neurosci Methods 1994; 53: 55). […] The mean and standard error of the mean (SEM) were determined for each paw in each treatment group. […] Effects of compounds were evaluated two weeks after the injury. Compound or vehicle was administered (i.p. or s.c.) and effects on mechanical allodynia were measured at different time points after dosing (e.g., 30, 60 and 90 min.). […]
Data analysis: Statistical analyses were conducted using Prism™ 4.01 (GraphPad, San Diego, Calif., USA). Mechanical hypersensitivity of the injured paw was determined by comparing contralateral to ipsilateral paw values within the vehicle group at each time point. Data were analyzed using the Mann-Whitney test. […]

PC12 (TrkA & p75) [3] = tested on: T1, PC12 (TrkA & p75); assay: 125I-NGF binding displacement in PC12 cells; set-up: species or system rat; settings: PC12, A875 and HEK_TrkA cells taken together
T1 construct: other: PC12, A875 an; fused on or other part: 125I label on NGF
Procedure: (§1) All cells were incubated at 37° C. in 5% CO2. PC12 cells were maintained in RPMI-1640 medium supplemented with 10% fetal bovine serum (FBS). A875 human melanoma cells were maintained in DMEM with 10% FBS. HEK 293 cells were stably transfected with human TrkA plasmid (see below) and maintained in DMEM with 10% FBS and G418 (600 μg/mL) for selection.
(§2) NGF binding was evaluated using methods familiar to those who are skilled in the art. Briefly, cells expressing one or both NGF receptors (PC12: TrkA+p75; A875: p75 alone; HEK_TrkA: TrkA alone) were harvested by replacing the medium with calcium-magnesium free balanced salt (Grey's) solution and incubating at 37° C. for 15 min. For NGF binding, cells were resuspended at a concentration of 2×10^6 cells/mL in HEPES-Krebs-Ringer (HKR) buffer (10 mM HEPES; 125 mM NaCl; 4.8 mM KCl; 1.3 mM CaCl2; 1.2 mM MgSO4; 1.2 mM KH2PO4; 1 mg/ml BSA; 1 mg/ml glucose; pH 7.4) and exposed to ^125I-NGF (˜0.11 nM) in the presence or absence of varying concentrations of the compound. Non-specific binding was determined for reference by incubating ^125I-NGF with an excess of non-radioactive NGF in the absence of compound. Following a two-hour incubation period at 4° C., ^125I-NGF bound to the cells was quantified in a gamma radiation counter following separation from unbound NGF by filtration or centrifugation through glycerol (10% in HKR). Inhibition of binding was calculated as a percent of the specific binding (calculated as the differential between ^125I-NGF binding in the absence and presence of an excess of non-radioactive NGF without compound). Dose-response inhibition curves were typically generated with seven concentrations of a given compound, with three replicates for each concentration. For most compounds, multiple dose-response curves were generated.

PC12 (TrkA & p75) [4] = tested on: T2, PC12 (TrkA & p75); assay: 125I-NGF binding displacement in PC12 cells; set-up: species or system rat; settings: PC12 cells expressing TrkA and p75; individual experiment
T2 construct: other: Concentration 25 μM; PC12 cells; other: Concentration 50 μM; other: PC12 cells; 125I-NGF ~0.11 nM; other: PC12 cells expressing TrkA and p75; individual experiment; fused on or other part: 125I label on NGF
Procedure: as §1, §2

For `CC(=O)Nc1cc2c3c(cc(NC(C)=O)cc3c1)C(=O)N(CCCC(=O)O)C2=O` [Compound 11, 4-(5,8-Bis-acetylamino-1,3-dioxo-1H,3H-benzo[de]isoquinolin-2-yl)-butyric acid], the “Antinociceptive effect in the Formalin Test” value (Male Sprague-Dawley rats [1]) was “significant dose-dependent antinociceptive effect; also recorded: significant antinociceptive effects”, the “Inhibition of NGF-induced neurite outgrowth” value (PC12 cells) was “effectively inhibit neurite outgrowth induced by NGF” and the “Effect on mechanical allodynia in the SNL model” value (Male Sprague-Dawley rats [2]) was “significant dose-dependent reversal of the mechanical allodynia; also recorded: significant antinociceptive effects”. For the same molecule, the “Block of NGF binding to TrkA and/or p75 (summary of FIGS. 1B, 2A, 2B, 4A, 4B, 6A, 6B, 7A, 8A, 8B)” value (PC12 (TrkA & p75) [3]) was “effectively block NGF binding to TrkA and/or p75” and the “NGF binding displacement, dose-response curve” value (PC12 (TrkA & p75) [4]) was “effectively blocks NGF binding to cells expressing TrkA and p75”.
